Measurements as given in paper PMC10064330, “Reversible Dual-Covalent Molecular Locking of the 14-3-3/ERRγ Protein–Protein Interaction as a Molecular Glue Drug Discovery Approach” (Journal of the American Chemical Society, 2023).

How the values were obtained:
14-3-3γ/ERRγ complex [1] = biological target: T1, 14-3-3γ/ERRγ complex (Homo sapiens, UniProt P61981+P62508); assay: Peptide washout experiment on immobilized 14-3-3γ/ERRγ complex; format: binding; settings: 100 μM compound; for total recovered ERRγ peptide: 5 washing steps of 20 min, normalized to recovery without 14-3-3γ; for initial peptide recovery: first washing step (DMSO 63%)
T1 construct: made in house; host or cells: E. coli NiCo21 (DE3)
Experimental: Next, a washout experiment was performed to understand ternary 14-3-3/ERRγ/molecular lock complex dissociation. Fluorescein-labeled ERRγ was incubated overnight with biotin-functionalized 14-3-3γ in the presence of either DMSO, disulfide 1, aldehyde 3, or molecular lock 5 and subsequently immobilized on streptavidin-functionalized magnetic beads (Figure S17a). The beads were then washed five times in a peptide and compound-free buffer. During each wash step, the beads were incubated in the buffer for 20 min to allow dissociation of the ERRγ peptide from the immobilized 14-3-3γ. The fluorescence was then measured for all samples before capture, after capture, and after each washing step (Figure S17b), and the amount of peptide recovery was calculated. […] The analysis of individual washing steps provided further insight into the ternary complex dissociation kinetics (Figure 3e).
Figure S17. Washout experiment. (a) Schematic representation of washout experiment. Biotinylated 14-3-3γ (5 µM), fluorescein-labelled ERRγ 9-mer peptide (200 nM) and dual-reactive molecular lock 5 were preincubated overnight to form a ternary ‘crosslinked’ complex. This complex was immobilized on streptavidin-functionalized magnetic beads. Complex-functionalized beads were subsequently washed […] with 50 µL buffer. For each wash step, the complex was incubated 20 minutes in the buffer before removal to allow dissociation of the ERRγ peptide from the ternary complex. From samples before and after capturing, and from all wash fractions, we have measured the fluorescence to determine the amount of ERR γ peptide in each fraction. (b) Fluorescence signal of fluorescein-labelled ERRγ peptide after washout experiment. Samples are present for FAM - ERRγ incubated with and without biotinylated 14 -3-3γ and in presence of either DMSO (negative control), disulfide compound 1, aldehyde compound 3 or dual-reactive compound 5. Fluorescence was measured from samples before and after capturing and from all wash fractions. (c) % recovery of FAM -ERRγ in each wash fraction of washout experiment. Percentage is obtained by dividing the fluorescence of each sample (see panel a) by the fluorescence signal obtained before capturing (input sample = 100% , see panel a). […]
steps in presence of DMSO, or 100 µM compound 1, 3 or 5. Values are calculated by dividing the fluorescence signal (from panel a) of samples with 14-3-3 with the fluorescence signal of samples without 14-3-3, to correct for non-specific binding of peptide to the magnetic beads. […]
(§1) temperatures are based on three independent experiments from which the average and standard deviations were determined using excel. […]

14-3-3γ/ERRγ complex [2] = biological target: T1, 14-3-3γ/ERRγ complex; assay: Time-dependent fluorescence anisotropy (TD-FA) of ternary complex formation; format: binding
Experimental: Time-dependent fluorescence anisotropy (TD-FA) measurements provided insights in the kinetics of ternary complex (14-3-3/ERRγ/lock) formation (Figures S2 and S3). All fragments reached saturation by ∼12 h. […] Carboxamides 4–6 and 8–10 reached saturation within 5 h.
TD-FA experiments were also performed at different pH values to study ternary complex (14-3-3γ/ERRγ/compound) formation and the importance of the imine bond in the molecular lock (Figure 3b,c and Figures S14–S16). […] Similarly, the avidity of the 14-3-3/ERRγ/1 complex at equilibrium was not affected by pH (Figure 3b). In contrast, 5 and 10 elicited an inverse relationship between pH and KD^app (Figure 3c and Figure S14), connected to impaired imine bond formation at low pH.
In contrast, the formation of the ternary complexes of 14-3-3γ/ERRγ/compound with 1, 5, and 10 was time-dependent and pH-responsive (Figure 3b,c and Figures S15 and S16). […] At pH 6.5, the kinetics of disulfide bond formation was 50% slower. For instance, at pH 6.5, the maximum effect of 1 was reached after a 4.2 h incubation, compared to 1.7–0.8 h for pH 7.0–8.0 (Figure S16g). […] Effective disulfide formation thus appeared to aid in the imine bond formation of the dual-covalent locks. Combining the two reactive handles increased the effective molar concentration of the lock within the binding pocket, illustrating the need for dual reactivity and leading to enhanced 14-3-3/ERRγ avidity.
Figure S2. Time resolved fluorescence anisotropy screen. Time dependent results of 14-3-3γ titration to 10 nM fluorescein-labelled ERRγ peptide in presence of 100 µM compound 1-10 (or DMSO as negative control).
Fluorescence anisotropy was measured every 15 minutes for the first 2 hours after which it was measured every hour for 15 hours. The plate was measured one more time after 24 hours incubation.
(1 picture or pasted object on this page, not shown here)
Figure S3. Time-dependent FA-based apparent Kd analysis. Determined apparent K from fluorescence […]
anisotropy binding curves (see figure S1) and plotted over time (top row) for all compounds in this study to show a time dependent decrease in KD (increase in affinity) between 14-3-3γ and ERRγ as induced by the compounds.
Bottom graphs show the normalized version of the top graphs where the KD at t=0h was set to no effect (0%) and […]
Figure S16. Time- and pH dependent FA-based apparent K analysis. (a-c) Determined apparent K from […]
fluorescence anisotropy binding curves (see figure S15) and plotted over time for compounds 1, 5 and 10. Results show a time dependent decrease in KD (increase in affinity) between 14-3-3γ and ERRγ as induced by the compounds over time. […]
as §1

T1 sequence (P61981 whole entry, other chains not shown): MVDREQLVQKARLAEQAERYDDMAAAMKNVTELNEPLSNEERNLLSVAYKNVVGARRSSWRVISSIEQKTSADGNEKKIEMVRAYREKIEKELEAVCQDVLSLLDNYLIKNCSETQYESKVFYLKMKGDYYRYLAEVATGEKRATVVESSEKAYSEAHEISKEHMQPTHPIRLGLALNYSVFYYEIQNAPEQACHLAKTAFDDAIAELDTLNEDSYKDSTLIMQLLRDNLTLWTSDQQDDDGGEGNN

Row | Compound | total recovered ERRγ peptide (14-3-3γ/ERRγ complex [1]) [%] | initial peptide recovery (14-3-3γ/ERRγ complex [1]) [%] | binding kinetics (14-3-3γ/ERRγ complex [2]; 100 μM compound, TD-FA) | incubation time to reach maximum effect (14-3-3γ/ERRγ complex [2]; pH 6.5, 100 μM compound) [h] | time to saturation of ternary complex formation (14-3-3γ/ERRγ complex [2]; 100 μM compound, TD-FA) [h]
1 | CN(C)CCSSCCN(C)C(=O)c1cccc(F)c1 [compound 1, reference compound] | 58 | 42 | significantly slower binding kinetics than molecular locks 4–10 | 4.2 | –
2 | CN(C)CCSSCCN(C)C(=O)c1ccc(C=O)c(F)c1 [compound 5] | 44 | 36 | fastest reaction kinetics | – | 2
